# Experimental data taken from patent US20240228506A1, “RIPK1 INHIBITORS AND METHODS OF USE” (Merck Sharp & Dohme LLC, priority 2021, published 2024).
# Target: T1, GST-RIPK1 (recombinant GST-RIPK1 kinase domain (residues 1-327)) (Homo sapiens, UniProt Q13546)
# T1 construct: recombinant GST-RIPK1 kinase domain (residues 1-327) enzyme; made in house; host or cells: baculovirus-transfected Sf21 insect cells
# T1 sequence (Q13546 1-327): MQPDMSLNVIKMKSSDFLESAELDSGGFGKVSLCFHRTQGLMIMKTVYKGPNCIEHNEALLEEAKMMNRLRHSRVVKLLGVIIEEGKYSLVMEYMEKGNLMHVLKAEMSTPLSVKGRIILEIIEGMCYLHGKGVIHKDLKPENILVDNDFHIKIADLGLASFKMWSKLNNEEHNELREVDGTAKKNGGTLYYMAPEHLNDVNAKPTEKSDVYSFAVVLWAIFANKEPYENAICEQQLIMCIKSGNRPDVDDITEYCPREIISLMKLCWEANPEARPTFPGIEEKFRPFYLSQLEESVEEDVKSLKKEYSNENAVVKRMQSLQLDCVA
# Experiment: RIPK1-ADP-Glo enzymatic assay
# Type: biochemical
# Settings: 25 nM GST-RIPK1, 300 μM ATP, 3 μM dephosphorylated-MBP; 30 minutes pre-incubation, 150 minutes reaction; ten-point titration
# Protocol: The enzymatic activity of RIPK1 is measured using an assay derived from ADP-Glo kit (Promega™), which provides a luminescent-based ADP detection system. Specifically, the ADP generated by RIPK1 kinase is proportionally detected as luminescent signals in a homogenous fashion. In this context, the assessment of the inhibitory effect of small molecules (EC50) is measured by the effectiveness of the compounds to inhibit the ATP to ADP conversion by RIPK1. In this assay, the potency (EC50) of each compound was determined from a ten-point (1:3 serial dilution; top compound concentration of 100000 nM) titration curve using the following outlined procedure. To each well of a white ProxiPlus 384 well-plate, […] of compound (1% DMSO in final assay volume of 3 μL) was dispensed, followed by the addition of 2 μL of 1× assay buffer (25 mM Hepes 7.3, 20 mM MgCl2, 50 mM NaCl, 1 mM DTT, 0.005% Tween20, and 0.02% BSA) containing 37.5 nM of GST-RIPK1 (recombinant GST-RIPK1 kinase domain (residues 1-327) enzyme produced from baculovirus-transfected Sf21 cells: MW=62 kDa). Plates were placed in an ambient temperature humidified chamber for a 30 minutes pre-incubation with compound. Subsequently, each reaction was initiated by the addition of 1 μL 1×assay buffer containing 900 μM ATP and […]. The final reaction in each well of 3 μL consists of 25 nM of GST-RIPK1, 300 μM ATP, and 3 μM dephosphorylated-MBP. Kinase reactions were allowed to proceed for 150 minutes prior to adding ADP-Glo reagents per Promega's outlined kit protocol. Dose-response curves were generated by plotting percent effect (% product conversion; Y-axis) vs. Log10 compound concentrations (X-axis). EC50 values were calculated using a non-linear regression, four-parameters sigmoidal dose-response model.
row,SMILES,IC50 [nM]
1,"CC1(C(=O)N2C[C@@H]3C[C@H]2c2cncc(C#N)c2O3)CCCC1(F)F (single isomer, unassigned) [Compound 1-38]",21
2,"CC1(C(=O)N2C[C@@H]3C[C@H]2c2cncc(C#N)c2O3)CC(F)(F)C1 [Compound 1-77, (2S,5S)-4-(3,3-difluoro-1-methylcyclobutane-1-carbonyl)-2,3,4,5-tetrahydro-2,5-methanopyrido[3,4-f][1,4]oxazepine-9-carbonitrile]",139
3,"CC1(C(=O)N2C[C@@H]3C[C@H]2c2cncc(C#N)c2O3)CCCC(F)(F)C1 (single isomer, unassigned) [Compound 1-40, (2S,5S)-4-[3,3-difluoro-1(R or S)-methylcyclohexane-1-carbonyl]-2,3,4,5-tetrahydro-2,5-methanopyrido[3,4-f][1,4]oxazepine-9-carbonitrile]",62
4,"N#Cc1cncc2c1O[C@H]1C[C@@H]2N(C(=O)C2(F)CCN(c3ccnc(Cl)c3)CC2)C1 [Compound 1-72, (2S,5S)-4-(1-(2-chloropyridin-4-yl)-4-fluoropiperidine-4-carbonyl)-2,3,4,5-tetrahydro-2,5-methanopyrido[3,4-f][1,4]oxazepine-9-carbonitrile]",35
5,"N#Cc1cncc2c1O[C@H]1C[C@@H]2N(C(=O)C2(C#N)CCC2)C1 [Compound 1-110, (2S,5S)-4-(1-cyanocyclobutane-1-carbonyl)-2,3,4,5-tetrahydro-2,5-methanopyrido[3,4-f][1,4]oxazepine-9-carbonitrile]",129
6,"CN(C)C(C)(C)C(=O)N1C[C@@H]2C[C@H]1c1cncc(C#N)c1O2 [Compound 1-90, (2S,5S)-4-(2-(dimethylamino)-2-methylpropanoyl)-2,3,4,5-tetrahydro-2,5-methanopyrido[3,4-f][1,4]oxazepine-9-carbonitrile]",85
7,"CC1(C(=O)N2C[C@@H]3C[C@H]2c2cncc(C#N)c2O3)CC1 [Compound 1-76, (2S,5S)-4-(1-methylcyclopropane-1-carbonyl)-2,3,4,5-tetrahydro-2,5-methanopyrido[3,4-f][1,4]oxazepine-9-carbonitrile]",780
8,"N#Cc1cncc2c1O[C@H]1C[C@@H]2N(C(=O)C23CCC(C(F)F)(CC2)C3)C1 [Compound 1-19, (2S,5S)-4-[4-(difluoromethyl)bicyclo[2.2.1]heptane-1-carbonyl]-2,3,4,5-tetrahydro-2,5-metanopyrido[3,4-f][1,4]oxazepine-9-carbonitrile]",24
9,"CCCC12CC(C(=O)N3C[C@@H]4C[C@H]3c3cncc(C#N)c3O4)(C1)C2 [Compound 1-105, (2S,5S)-4-(3-propylbicyclo[1.1.1]pentane-1-carbonyl)-2,3,4,5-tetrahydro-2,5-methanopyrido[3,4-f][1,4]oxazepine-9-carbonitrile]",92
10,"CC(C)(CC#N)C(=O)N1C[C@@H]2C[C@H]1c1cncc(C#N)c1O2 [Compound 1-20, (2S,5S)-4-(3-cyano-2,2-dimethylpropanoyl)-2,3,4,5-tetrahydro-2,5-methanopyrido[3,4-f][1,4]oxazepine-9-carbonitrile]",89
11,"COc1cc(N2CCC(F)(C(=O)N3C[C@@H]4C[C@H]3c3cncc(C#N)c3O4)CC2)ncn1 [Compound 1-53, (2S,5S)-4-(4-fluoro-1-(6-methoxypyrimidin-4-yl)piperidine-4-carbonyl)-2,3,4,5-tetrahydro-2,5-methanopyrido[3,4-f][1,4]oxazepine-9-carbonitrile]",226
12,"N#Cc1cncc2c1O[C@H]1C[C@@H]2N(C(=O)C2(C(F)F)CCCO2)C1 (stereo partly drawn) [Compound 1-60, (2S,5S)-4-(2-(difluoromethyl)tetrahydro-furan-2-carbonyl)-2,3,4,5-tetrahydro-2,5-methanopyrido[3,4-f][1,4]oxazepine-9-carbonitrile]",230

# Other lines, results leading:
row,IC50 [nM],SMILES
1,18,"COc1cccc(C#Cc2cncc3c2O[C@H]2C[C@@H]3N(C(=O)C34CCC(C(F)(F)F)(CC3)C4)C2)c1 [Compound 2-66, ((2S,5S)-9-((3-methoxyphenyl)ethynyl)-2,3-dihydro-2,5-methanopyrido[3,4-f][1,4]oxazepin-4(5H)-yl)(4-(trifluoromethyl)bicyclo [2.2.1]heptan-1-yl)methanone]"
2,1530,"CC(C)(C(=O)N1C[C@@H]2C[C@H]1c1cncc(C#CC34CC(C(F)(F)F)(C3)C4)c1O2)C(F)F [Compound 2-114, 3,3-difluoro-2,2-dimethyl-1-((2S,5S)-9-((3-(trifluoromethyl)bicyclo [1.1.1]pentan-1-yl)ethynyl)-2,3-dihydro-2,5-methanopyrido[3,4-f][1,4]oxazepin-4(5H)-yl)propan-1-one]"
3,49,"N#Cc1cncc2c1S[C@H]1C[C@@H]2N(C(=O)C2(C#N)CCC2)C1 [Compound 4-6, (2S,5S)-4-(1-cyanocyclobutane-1-carbonyl)-2,3,4,5-tetrahydro-2,5-methanopyrido[3,4-f][1,4]thiazepine-9-carbonitrile]"
4,72,"COc1ccccc1C#Cc1cncc2c1O[C@H]1C[C@@H]2N(C(=O)C23CCC(C(F)(F)F)(CC2)C3)C1 [Compound 2-70, ((2S,5S)-9-((2-methoxyphenyl)ethynyl)-2,3-dihydro-2,5-methanopyrido[3,4-f][1,4]oxazepin-4(5H)-yl)(4-(trifluoromethyl)bicyclo [2.2.1]heptan-1-yl)methanone]"
5,33,"Cc1ncc(C#Cc2cncc3c2O[C@H]2C[C@@H]3N(C(=O)C(C)(C)C(F)F)C2)cn1 [Compound 2-76, 3,3-difluoro-2,2-dimethyl-1-((2S,5S)-9-((2-methylpyrimidin-5-yl)ethynyl)-2,3-dihydro-2,5-methanopyrido[3,4-f][1,4]oxazepin-4(5H)-yl)propan-1-one]"
6,24,"O=C(N1C[C@@H]2C[C@H]1c1cncc(C#Cc3ccc(F)cc3)c1O2)C12CCC(F)(CC1)C2 [Compound 2-122, (4-fluorobicyclo[2.2.1]heptan-1-yl)((2S,5S)-9-((4-fluorophenyl)ethynyl)-2,3-dihydro-2,5-methanopyrido[3,4-f][1,4]oxazepin-4(5H)-yl)methanone]"
7,18,N#CCc1ccc(C#Cc2cncc3c2O[C@H]2C[C@@H]3N(C(=O)C34CCC(F)(CC3)C4)C2)cc1 [Compound 2-105]
8,36,"CC(C)(C(=O)N1C[C@@H]2C[C@H]1c1cncc(C#Cc3cccnc3)c1O2)C(F)F [Compound 2-48, 3,3-difluoro-2,2-dimethyl-1-((2S,5S)-9-(pyridin-3-ylethynyl)-2,3-dihydro-2,5-methanopyrido[3,4-f][1,4]oxazepin-4(5H)-yl)propan-1-one]"
9,26,"O=C(N1C[C@@H]2C[C@H]1c1cncc(F)c1O2)C12CCC(F)(CC1)C2 [Compound 2-7, (4-fluorobicyclo[2.2.1]heptan-1-yl)[(2S,5S)-9-fluoro-2,3-dihydro-2,5-methanopyrido[3,4-f][1,4]oxazepin-4(5H)-yl]methanone]"
10,83,"CC[C@H](C)CC#Cc1cncc2c1O[C@H]1C[C@@H]2N(C(=O)C(C)(C)C(F)F)C1 [Compound 2-112, 3,3-difluoro-2,2-dimethyl-1-((2S,5S)-9-((S)-4-methylhex-1-yn-1-yl)-2,3-dihydro-2,5-methanopyrido[3,4-f][1,4]oxazepin-4(5H)-yl)propan-1-one]"
11,23,"O=C(N1C[C@@H]2C[C@H]1c1cncc(C#CCn3ccnc3)c1O2)C12CCC(C(F)(F)F)(CC1)C2 [Compound 2-56, ((2S,5S)-9-(3-(1H-imidazol-1-yl)prop-1-yn-1-yl)-2,3-dihydro-2,5-methanopyrido[3,4-f][1,4]oxazepin-4(5H)-yl)(4-(trifluoromethyl)bicyclo [2.2.1]heptan-1-yl)methanone]"
12,18,"COc1ccc(C#Cc2cncc3c2O[C@H]2C[C@@H]3N(C(=O)C34CCC(C(F)(F)F)(CC3)C4)C2)cc1 [Compound 2-65, ((2S,5S)-9-((4-methoxyphenyl)ethynyl)-2,3-dihydro-2,5-methanopyrido[3,4-f][1,4]oxazepin-4(5H)-yl)(4-(trifluoromethyl)bicyclo [2.2.1]heptan-1-yl)methanone]"
13,31,"CC(C)(C(=O)N1C[C@@H]2C[C@H]1c1cncc(C#Cc3ccc(C(F)(F)F)nc3)c1O2)C(F)F [Compound 2-86, 3,3-difluoro-2,2-dimethyl-1-((2S,5S)-9-((6-(trifluoromethyl)pyridin-3-yl)ethynyl)-2,3-dihydro-2,5-methanopyrido[3,4-f][1,4]oxazepin-4(5H)-yl)propan-1-one]"
